From article PMC7785020, “A unique hormonal recognition feature of the human glucagon-like peptide-2 receptor” (Cell Research, 2020)
Where a chain is given by its changes, count along the chain named. Where two headings read alike, the source gives them in different places. No end group written: not given here.

What was measured:
Type in all cases: cell-based
[1] = target: T1, GLP-2R N247^ECL1A (Homo sapiens, UniProt O95838, N247A); experiment: cAMP accumulation, N247^ECL1A; design: WT (1–553); expressed in transfected cells; HEK 293T (cAMP); details: Table S5, N247A, HEK 293T, 30 min, RT, mean ± SEM, n ≥ 3 in duplicate; for Emax: read-out: cAMP Emax (% WT); for EC50: read-out: cAMP pEC50 (converted)
T1 sequence (O95838 1-553 N247A): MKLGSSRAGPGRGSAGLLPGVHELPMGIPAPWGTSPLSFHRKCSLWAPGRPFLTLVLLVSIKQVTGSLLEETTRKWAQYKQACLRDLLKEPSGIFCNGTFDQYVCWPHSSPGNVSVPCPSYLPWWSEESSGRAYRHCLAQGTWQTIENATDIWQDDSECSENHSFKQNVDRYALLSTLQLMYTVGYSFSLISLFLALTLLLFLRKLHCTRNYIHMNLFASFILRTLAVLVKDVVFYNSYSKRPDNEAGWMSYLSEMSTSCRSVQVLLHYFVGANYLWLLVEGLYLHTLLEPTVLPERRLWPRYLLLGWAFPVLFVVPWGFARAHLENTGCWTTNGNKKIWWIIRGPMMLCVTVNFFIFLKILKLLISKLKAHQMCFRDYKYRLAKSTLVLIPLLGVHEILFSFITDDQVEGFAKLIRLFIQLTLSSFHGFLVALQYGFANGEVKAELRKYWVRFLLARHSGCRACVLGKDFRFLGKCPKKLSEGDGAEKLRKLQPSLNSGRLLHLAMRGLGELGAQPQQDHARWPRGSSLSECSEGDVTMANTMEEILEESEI
Protocol: (§1) HEK 293T cells were cultured in Dulbecco’s Modified Eagle’s Medium (DMEM) (Gibco, Waltham, USA) supplemented with 10% (v/v) fetal bovine serum (FBS) (Gibco) and 1% (v/v) sodium pyruvate (Gibco) at 37 °C, 5% CO2 in a humidified incubator. They were seeded onto 6-well cell culture plates and transiently transfected with different GLP-2R constructs using Lipofectamine 2000 transfection reagent (Invitrogen, Carlsbad, CA, USA). After 24 h, the transfected cells were seeded onto 384-well microtiter plates (3000 cells per well) in HBSS supplemented with 5 mM HEPES, 0.1% (w/v) bovine serum albumin (BSA) and 0.5 mM 3-isobutyl-1- methylxanthine, and stimulated with increasing concentrations of GLP-2 for 30 min at RT. Eu and Ulight were diluted by cAMP detection buffer and added to the plates separately to terminate the reaction. Plates were incubated at RT for 60 min before measuring the fluorescence intensity at 620 nm and […] by an EnVision multilabel plate reader (PerkinElmer, Boston, USA).

[2] = target: GLP-1R (WT) (Homo sapiens, UniProt P43220); experiment: cAMP accumulation, WT GLP-1R; design: expressed in transfected cells; host or cells: HEK 293T; details: Table S5, GLP-1R (WT), HEK 293T, 30 min, RT, mean ± SEM, n ≥ 3 in duplicate; for EC50: read-out: cAMP pEC50 (converted)
GLP-1R (WT), sequence (P43220 24-463, species assumed): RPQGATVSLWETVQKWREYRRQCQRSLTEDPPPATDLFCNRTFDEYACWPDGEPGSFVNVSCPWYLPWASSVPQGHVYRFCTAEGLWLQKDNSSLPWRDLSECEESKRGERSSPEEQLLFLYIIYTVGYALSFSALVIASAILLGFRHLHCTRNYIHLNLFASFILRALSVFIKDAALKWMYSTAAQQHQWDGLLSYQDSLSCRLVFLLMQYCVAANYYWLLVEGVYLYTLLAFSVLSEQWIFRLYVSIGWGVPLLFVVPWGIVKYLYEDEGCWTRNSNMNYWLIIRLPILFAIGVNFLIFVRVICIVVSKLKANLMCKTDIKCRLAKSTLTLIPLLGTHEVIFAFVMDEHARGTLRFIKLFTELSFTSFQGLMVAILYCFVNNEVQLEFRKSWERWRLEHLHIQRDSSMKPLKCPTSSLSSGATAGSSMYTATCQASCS

[3] = target: T2, GLP-2R D244^ECL1A (Homo sapiens, UniProt O95838, D244A); experiment: cAMP accumulation, D244^ECL1A; design: WT (1–553); expressed in transfected cells; HEK 293T (cAMP); details: Table S5, D244A, HEK 293T, 30 min, RT, mean ± SEM, n ≥ 3 in duplicate; for Emax: read-out: cAMP Emax (% WT); for EC50: read-out: cAMP pEC50 (converted)
T2 sequence (O95838 1-553 D244A): T1 sequence (O95838 1-553 N247A) with D244A, A247N
Protocol: as §1

[4] = target: T3, GLP-2R R242^ECL1A (Homo sapiens, UniProt O95838, R242A); experiment: cAMP accumulation, R242^ECL1A; design: WT (1–553); expressed in transfected cells; HEK 293T (cAMP); details: 30 min, RT, mean ± SEM, n ≥ 3 in duplicate; for Emax: HEK-293T, read-out: cAMP Emax (% WT); for EC50: HEK 293T, read-out: cAMP pEC50 (converted)
T3 sequence (O95838 1-553 R242A): T1 sequence (O95838 1-553 N247A) with R242A, A247N
Protocol: as §1

Compound | Emax [1] | EC50 [1] | Emax [2] | EC50 [2] | Emax [3] | EC50 [3] | Emax ([4]; Table S5, R242A) | EC50 ([4]; Table S5, R242A) | Emax ([4]; Table S3, R242A)
HADGSFTSDVSSYLEGQAARDFINWLIQTKITD [Chimeric GLP-1/GLP-2 (7-19)] | 102 ± 2.8% | 1.26 nM | 105 ± 2.4% | 0.0126 nM | 102 ± 1.8% | 3.16 nM | 106 ± 4.9% | 25.1 nM | –
HADGSFSDEMNTILDNLAAKEFIAWLVKGRG [Chimeric GLP-1/GLP-2 (20-33)] | 103 ± 1.8% | 0.0501 nM | 112 ± 2.8% | 3.16 nM | 104 ± 1.8% | 0.251 nM | 102 ± 3.1% | 1.26 nM | –
HAEGTFSDEMNTILDNLAARDFINWLIQTKITD [Chimeric GLP-1/GLP-2 (1-6)] | 102 ± 1.8% | 0.0398 nM | 7.1 ± 3.2% | 7.94 nM | 102 ± 2.5% | 0.251 nM | 105 ± 3.2% | 7.94 nM | –
CC[C@H](C)[C@H](NC(=O)[C@H](Cc1ccccc1)NC(=O)[C@H](CC(=O)O)NC(=O)[C@H](CCCNC(=N)N)NC(=O)[C@H](C)NC(=O)[C@H](C)NC(=O)[C@H](CC(C)C)NC(=O)[C@H](CC(N)=O)NC(=O)[C@H](CC(=O)O)NC(=O)[C@H](CC(C)C)NC(=O)[C@@H](NC(=O)[C@@H](NC(=O)[C@H](CC(N)=O)NC(=O)[C@H](CCSC)NC(=O)[C@H](CCC(=O)O)NC(=O)[C@H](CC(=O)O)NC(=O)[C@H](CO)NC(=O)[C@H](Cc1ccccc1)NC(=O)[C@H](CO)NC(=O)CNC(=O)[C@H](CC(=O)O)NC(=O)[C@H](C)NC(=O)[C@@H](N)Cc1c[nH]cn1)[C@@H](C)O)[C@@H](C)CC)C(=O)N[C@@H](CC(N)=O)C(=O)N[C@@H](Cc1c[nH]c2ccccc12)C(=O)N[C@@H](CC(C)C)C(=O)N[C@H](C(=O)N[C@@H](CCC(N)=O)C(=O)N[C@H](C(=O)N[C@@H](CCCCN)C(=O)N[C@H](C(=O)N[C@H](C(=O)N[C@@H](CC(=O)O)C(=O)O)[C@@H](C)O)[C@@H](C)CC)[C@@H](C)O)[C@@H](C)CC [Human GLP-2 (1–33)] | 103 ± 1.8% | – | 4 ± 3.1% | 5.01 nM | 101 ± 2.8% | – | 104 ± 2.3% | – | 107 ± 3.4%
